Legend:
Assay in all cases: KINOMEscan competition binding
Settings in all cases: compound 10.0 µM
MARK1 (human) = MARK1 (human) (UniProt Q9P0L2)
CDKL2 (human) = CDKL2 (human) (UniProt Q92772)
[1] = target: JAK2 JH1 catalytic (human) (UniProt O60674)
MYO3A (human) = MYO3A (human) (UniProt Q8NEV4)
ACVR1 (human) = ACVR1 (human) (UniProt Q04771)
STK3 (human) = STK3 (human) (UniProt Q13188)
IRAK4 (human) = IRAK4 (human) (UniProt Q9NWZ3)
RPS6KA4 KD2 (human) = RPS6KA4 KD2 (human) (UniProt O75676)
ICK (human) = ICK (human) (UniProt Q9UPZ9)
STK10 (human) = STK10 (human) (UniProt O94804)
PIM3 (human) = PIM3 (human) (UniProt Q86V86)
MAPKAPK2 (human) = MAPKAPK2 (human) (UniProt P49137)
NEK2 (human) = NEK2 (human) (UniProt P51955)
IKBKE (human) = IKBKE (human) (UniProt Q14164)
CSNK1E (human) = CSNK1E (human) (UniProt P49674)
RPS6KA4 KD1 (human) = RPS6KA4 KD1 (human) (UniProt O75676)
MAPK11 (human) = MAPK11 (human) (UniProt Q15759)
SGK110 (human) = SGK110 (human) (UniProt P0C264)
MAP2K7 (human) = MAP2K7 (human) (UniProt O14733)
NTRK1 (human) = NTRK1 (human) (UniProt P04629)
CAMKK2 (human) = CAMKK2 (human) (UniProt Q96RR4)
MYO3B (human) = MYO3B (human) (UniProt Q8WXR4)
BRSK1 (human) = BRSK1 (human) (UniProt Q8TDC3)
TESK1 (human) = TESK1 (human) (UniProt Q15569)
STK38 (human) = STK38 (human) (UniProt Q15208)
[2] = tested on: KIT (human), P10721 [V559D/V654A]
RIOK3 (human) = RIOK3 (human) (UniProt O14730)
HIPK4 (human) = HIPK4 (human) (UniProt Q8NE63)
SNRK (human) = SNRK (human) (UniProt Q9NRH2)
ERN1 (human) = ERN1 (human) (UniProt O75460)
MELK (human) = MELK (human) (UniProt Q14680)
EPHB2 (human) = EPHB2 (human) (UniProt P29323)
TXK (human) = TXK (human) (UniProt P42681)
DDR1 (human) = DDR1 (human) (UniProt Q08345)
NUAK1 (human) = NUAK1 (human) (UniProt O60285)
STK24 (human) = STK24 (human) (UniProt Q9Y6E0)
DMPK (human) = DMPK (human) (UniProt Q09013)
EGFR (human) = EGFR (human) (UniProt P00533)
HIPK2 (human) = HIPK2 (human) (UniProt Q9H2X6)
[3] = tested on: EGFR (human), P00533 [747-751 del / S ins]

Chain of DDR1 (human) (Q08345 whole entry, looked up): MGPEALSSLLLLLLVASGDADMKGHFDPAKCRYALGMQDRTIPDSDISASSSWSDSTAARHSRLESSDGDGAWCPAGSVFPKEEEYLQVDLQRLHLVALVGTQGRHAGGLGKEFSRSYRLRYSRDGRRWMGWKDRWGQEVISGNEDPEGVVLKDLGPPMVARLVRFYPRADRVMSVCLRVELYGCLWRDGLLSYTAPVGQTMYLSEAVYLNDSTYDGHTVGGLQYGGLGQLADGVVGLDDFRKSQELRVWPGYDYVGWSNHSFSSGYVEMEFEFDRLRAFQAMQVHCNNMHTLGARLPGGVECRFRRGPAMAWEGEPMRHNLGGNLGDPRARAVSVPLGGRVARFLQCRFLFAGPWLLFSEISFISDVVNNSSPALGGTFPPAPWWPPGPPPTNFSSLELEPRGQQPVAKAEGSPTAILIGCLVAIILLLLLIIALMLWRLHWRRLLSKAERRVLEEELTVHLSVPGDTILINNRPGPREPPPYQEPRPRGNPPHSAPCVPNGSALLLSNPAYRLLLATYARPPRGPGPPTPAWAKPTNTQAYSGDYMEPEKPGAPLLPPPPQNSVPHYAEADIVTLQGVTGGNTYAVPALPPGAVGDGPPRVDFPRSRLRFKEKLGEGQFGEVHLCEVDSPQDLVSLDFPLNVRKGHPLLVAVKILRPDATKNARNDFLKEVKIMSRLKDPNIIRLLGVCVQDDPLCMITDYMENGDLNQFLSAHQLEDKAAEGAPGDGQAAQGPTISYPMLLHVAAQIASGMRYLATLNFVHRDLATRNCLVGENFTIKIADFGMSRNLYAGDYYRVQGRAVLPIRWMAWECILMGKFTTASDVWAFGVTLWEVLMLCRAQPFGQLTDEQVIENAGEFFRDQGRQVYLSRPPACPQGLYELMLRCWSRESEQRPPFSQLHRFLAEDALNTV
Chain of MELK (human) (Q14680 whole entry, looked up): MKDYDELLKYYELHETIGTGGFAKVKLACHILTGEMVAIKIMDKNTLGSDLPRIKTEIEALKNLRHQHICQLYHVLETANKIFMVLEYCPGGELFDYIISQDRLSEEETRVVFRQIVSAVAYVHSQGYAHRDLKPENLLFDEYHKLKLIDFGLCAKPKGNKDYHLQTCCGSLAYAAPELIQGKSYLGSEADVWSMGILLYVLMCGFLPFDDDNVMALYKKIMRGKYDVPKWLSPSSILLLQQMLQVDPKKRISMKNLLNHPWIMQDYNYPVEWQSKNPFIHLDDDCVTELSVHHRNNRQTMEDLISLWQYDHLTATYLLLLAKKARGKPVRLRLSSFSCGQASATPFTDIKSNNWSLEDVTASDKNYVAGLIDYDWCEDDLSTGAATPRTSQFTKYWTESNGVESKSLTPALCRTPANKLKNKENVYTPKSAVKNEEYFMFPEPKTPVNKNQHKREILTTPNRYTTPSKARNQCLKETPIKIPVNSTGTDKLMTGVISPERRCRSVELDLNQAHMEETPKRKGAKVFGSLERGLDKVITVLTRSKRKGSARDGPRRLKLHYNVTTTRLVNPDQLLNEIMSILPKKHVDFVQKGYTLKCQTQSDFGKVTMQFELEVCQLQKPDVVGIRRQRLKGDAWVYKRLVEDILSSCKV
Chain of NUAK1 (human) (O60285 whole entry, looked up): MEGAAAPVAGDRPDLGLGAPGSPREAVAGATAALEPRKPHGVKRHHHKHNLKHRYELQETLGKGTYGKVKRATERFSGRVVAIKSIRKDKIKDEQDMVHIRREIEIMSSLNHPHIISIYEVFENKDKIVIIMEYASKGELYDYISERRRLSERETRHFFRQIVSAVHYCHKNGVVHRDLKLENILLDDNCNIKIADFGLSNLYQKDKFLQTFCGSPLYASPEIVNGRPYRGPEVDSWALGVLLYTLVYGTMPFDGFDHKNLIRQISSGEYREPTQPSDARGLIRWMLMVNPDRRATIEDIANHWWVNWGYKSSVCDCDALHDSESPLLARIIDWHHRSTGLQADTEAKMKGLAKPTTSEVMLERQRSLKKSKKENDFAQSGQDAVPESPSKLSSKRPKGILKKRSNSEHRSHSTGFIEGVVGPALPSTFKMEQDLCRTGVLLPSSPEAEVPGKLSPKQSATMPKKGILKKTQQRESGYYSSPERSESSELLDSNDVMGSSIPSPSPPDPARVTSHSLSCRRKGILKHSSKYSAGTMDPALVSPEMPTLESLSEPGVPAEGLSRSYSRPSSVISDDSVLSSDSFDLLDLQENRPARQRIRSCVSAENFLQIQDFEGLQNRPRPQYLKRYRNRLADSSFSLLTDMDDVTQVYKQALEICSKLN
Chain of HIPK4 (human) (Q8NE63 whole entry, looked up): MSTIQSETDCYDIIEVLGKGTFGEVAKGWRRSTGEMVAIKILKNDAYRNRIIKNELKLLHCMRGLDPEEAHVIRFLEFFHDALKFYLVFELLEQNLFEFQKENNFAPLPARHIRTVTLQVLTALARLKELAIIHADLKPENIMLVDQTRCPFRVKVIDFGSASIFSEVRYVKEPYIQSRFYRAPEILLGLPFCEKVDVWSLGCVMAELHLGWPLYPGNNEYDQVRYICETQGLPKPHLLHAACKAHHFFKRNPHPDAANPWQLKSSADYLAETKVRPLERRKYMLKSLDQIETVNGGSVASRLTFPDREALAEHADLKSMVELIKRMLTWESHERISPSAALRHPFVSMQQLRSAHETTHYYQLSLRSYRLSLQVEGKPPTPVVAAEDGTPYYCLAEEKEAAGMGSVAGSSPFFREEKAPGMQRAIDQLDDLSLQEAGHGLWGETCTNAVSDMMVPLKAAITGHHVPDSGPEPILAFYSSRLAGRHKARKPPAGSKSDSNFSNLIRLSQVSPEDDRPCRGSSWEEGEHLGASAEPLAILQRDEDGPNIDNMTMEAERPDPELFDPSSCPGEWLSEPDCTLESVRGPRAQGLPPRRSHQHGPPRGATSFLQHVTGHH
Chain of NEK2 (human) (P51955 whole entry, looked up): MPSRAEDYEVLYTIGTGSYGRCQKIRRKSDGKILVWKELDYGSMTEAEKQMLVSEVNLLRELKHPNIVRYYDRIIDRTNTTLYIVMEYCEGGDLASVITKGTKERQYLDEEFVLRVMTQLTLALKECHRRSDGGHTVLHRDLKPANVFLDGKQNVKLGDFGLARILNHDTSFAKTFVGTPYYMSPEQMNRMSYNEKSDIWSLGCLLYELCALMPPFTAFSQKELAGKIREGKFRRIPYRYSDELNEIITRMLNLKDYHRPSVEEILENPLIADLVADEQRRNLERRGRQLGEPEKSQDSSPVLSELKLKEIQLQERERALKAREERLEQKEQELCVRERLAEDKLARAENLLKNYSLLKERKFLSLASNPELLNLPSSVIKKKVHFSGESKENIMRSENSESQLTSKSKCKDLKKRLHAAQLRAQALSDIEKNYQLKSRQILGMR
Chain of KIT (human), P10721 [V559D/V654A] (P10721 whole entry V559D/V654A, looked up): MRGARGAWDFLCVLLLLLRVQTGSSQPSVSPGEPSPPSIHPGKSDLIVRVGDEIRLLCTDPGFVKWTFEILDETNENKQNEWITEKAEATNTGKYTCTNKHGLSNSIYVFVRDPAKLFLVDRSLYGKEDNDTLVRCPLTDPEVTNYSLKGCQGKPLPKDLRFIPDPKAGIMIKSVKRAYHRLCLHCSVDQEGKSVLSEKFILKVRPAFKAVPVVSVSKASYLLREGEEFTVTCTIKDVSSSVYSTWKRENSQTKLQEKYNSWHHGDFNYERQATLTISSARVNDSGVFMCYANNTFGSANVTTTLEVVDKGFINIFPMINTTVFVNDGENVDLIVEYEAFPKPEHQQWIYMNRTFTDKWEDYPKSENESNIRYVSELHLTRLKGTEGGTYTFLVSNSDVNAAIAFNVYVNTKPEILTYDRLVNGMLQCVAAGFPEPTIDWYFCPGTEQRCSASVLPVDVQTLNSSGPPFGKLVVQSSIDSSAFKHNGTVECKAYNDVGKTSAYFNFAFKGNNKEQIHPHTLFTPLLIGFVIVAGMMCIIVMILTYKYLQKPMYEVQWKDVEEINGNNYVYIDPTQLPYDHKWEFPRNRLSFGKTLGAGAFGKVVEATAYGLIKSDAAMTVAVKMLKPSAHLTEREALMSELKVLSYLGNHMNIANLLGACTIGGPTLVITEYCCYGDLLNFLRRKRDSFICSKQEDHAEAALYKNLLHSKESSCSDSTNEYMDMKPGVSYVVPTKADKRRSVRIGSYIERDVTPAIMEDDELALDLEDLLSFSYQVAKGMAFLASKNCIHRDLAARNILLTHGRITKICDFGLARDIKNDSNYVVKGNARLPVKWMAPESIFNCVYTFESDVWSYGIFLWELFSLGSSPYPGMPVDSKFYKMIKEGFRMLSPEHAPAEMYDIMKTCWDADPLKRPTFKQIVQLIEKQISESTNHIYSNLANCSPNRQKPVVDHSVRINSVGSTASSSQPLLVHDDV
Chain of MARK1 (human) (Q9P0L2 whole entry, looked up): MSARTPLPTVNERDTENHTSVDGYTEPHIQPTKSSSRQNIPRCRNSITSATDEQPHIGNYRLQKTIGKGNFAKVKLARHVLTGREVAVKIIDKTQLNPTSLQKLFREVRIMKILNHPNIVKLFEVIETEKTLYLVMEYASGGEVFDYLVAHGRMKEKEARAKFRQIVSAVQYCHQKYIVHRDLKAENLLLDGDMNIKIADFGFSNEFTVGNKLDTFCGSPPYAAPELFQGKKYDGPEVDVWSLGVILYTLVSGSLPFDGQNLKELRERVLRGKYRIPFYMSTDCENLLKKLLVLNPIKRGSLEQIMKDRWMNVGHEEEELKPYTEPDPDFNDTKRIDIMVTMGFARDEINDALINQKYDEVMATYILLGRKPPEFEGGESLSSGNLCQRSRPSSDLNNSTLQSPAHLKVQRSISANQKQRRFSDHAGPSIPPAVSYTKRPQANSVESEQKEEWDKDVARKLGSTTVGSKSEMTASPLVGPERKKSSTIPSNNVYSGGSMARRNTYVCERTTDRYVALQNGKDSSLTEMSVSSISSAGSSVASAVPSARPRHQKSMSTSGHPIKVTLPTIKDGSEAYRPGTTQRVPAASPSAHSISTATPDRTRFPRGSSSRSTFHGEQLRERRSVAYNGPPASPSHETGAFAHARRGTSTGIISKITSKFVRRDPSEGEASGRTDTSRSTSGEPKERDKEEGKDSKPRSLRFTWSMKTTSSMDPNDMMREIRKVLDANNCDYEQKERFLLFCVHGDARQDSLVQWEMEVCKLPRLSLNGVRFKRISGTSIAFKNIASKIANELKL

SMILES | kinase still bound, per cent of control (MARK1 (human)) [%] | kinase still bound, per cent of control (CDKL2 (human)) [%] | kinase still bound, per cent of control [1] [%] | kinase still bound, per cent of control (MYO3A (human)) [%] | kinase still bound, per cent of control (ACVR1 (human)) [%] | kinase still bound, per cent of control (STK3 (human)) [%] | kinase still bound, per cent of control (RPS6KA4 KD2 (human)) [%] | kinase still bound, per cent of control (ICK (human)) [%] | kinase still bound, per cent of control (STK10 (human)) [%] | kinase still bound, per cent of control (PIM3 (human)) [%] | kinase still bound, per cent of control (MAPKAPK2 (human)) [%] | kinase still bound, per cent of control (NEK2 (human)) [%] | kinase still bound, per cent of control (IKBKE (human)) [%] | kinase still bound, per cent of control (CSNK1E (human)) [%] | kinase still bound, per cent of control (RPS6KA4 KD1 (human)) [%] | kinase still bound, per cent of control (MAPK11 (human)) [%] | kinase still bound, per cent of control (SGK110 (human)) [%] | kinase still bound, per cent of control (NTRK1 (human)) [%] | kinase still bound, per cent of control (CAMKK2 (human)) [%] | kinase still bound, per cent of control (MYO3B (human)) [%] | further results
COCC(=O)NC/C=C/c1ccc2ncnc(Nc3ccc(Oc4ccc(C)nc4)c(C)c3)c2c1 | 100 | 91 | 100 | 75 | 90 | 82 | 100 | 100 | 4.2 | 100 | 100 | 100 | 100 | 100 | 97 | 100 | 100 | 89 | 85 | 100 | kinase still bound, per cent of control (IRAK4 (human)): 100%; kinase still bound, per cent of control (MAP2K7 (human)): 100%; kinase still bound, per cent of control (BRSK1 (human)): 100%; kinase still bound, per cent of control (TESK1 (human)): 75%; kinase still bound, per cent of control (STK38 (human)): 73%; kinase still bound, per cent of control [2]: 88%; kinase still bound, per cent of control (RIOK3 (human)): 100%; kinase still bound, per cent of control (HIPK4 (human)): 95%; kinase still bound, per cent of control (SNRK (human)): 71%; kinase still bound, per cent of control (ERN1 (human)): 82%; kinase still bound, per cent of control (MELK (human)): 92%; kinase still bound, per cent of control (EPHB2 (human)): 100%; kinase still bound, per cent of control (TXK (human)): 84%; kinase still bound, per cent of control (DDR1 (human)): 52%; kinase still bound, per cent of control (NUAK1 (human)): 100%; kinase still bound, per cent of control (STK24 (human)): 90%
CCN(CC)CCCCNc1ncc2c(n1)N(C)C(=O)N(c1c(Cl)c(OC)cc(OC)c1Cl)C2 | 100 | 100 | 100 | 100 | 100 | 100 | 100 | 100 | 100 | 100 | 100 | 100 | 100 | 100 | 100 | 100 | 100 | 100 | 100 | 100 | kinase still bound, per cent of control (DMPK (human)): 100%; kinase still bound, per cent of control (EGFR (human)): 100%; kinase still bound, per cent of control (HIPK2 (human)): 100%; kinase still bound, per cent of control (BRSK1 (human)): 100%; kinase still bound, per cent of control (TESK1 (human)): 100%; kinase still bound, per cent of control (STK38 (human)): 100%; kinase still bound, per cent of control [2]: 100%; kinase still bound, per cent of control (RIOK3 (human)): 100%; kinase still bound, per cent of control (HIPK4 (human)): 100%; kinase still bound, per cent of control (ERN1 (human)): 100%; kinase still bound, per cent of control (MELK (human)): 100%; kinase still bound, per cent of control (EPHB2 (human)): 100%; kinase still bound, per cent of control (TXK (human)): 100%; kinase still bound, per cent of control (DDR1 (human)): 0.15%; kinase still bound, per cent of control [3]: 100%; kinase still bound, per cent of control (NUAK1 (human)): 100%; kinase still bound, per cent of control (STK24 (human)): 13%
COc1cc(N2CCN(C)CC2)ccc1Nc1ncc2c(n1)N(C)c1ccccc1C(=O)N2C | 100 | 100 | 100 | 100 | 100 | 100 | 100 | 100 | 100 | 100 | 100 | 100 | 100 | 100 | 100 | 100 | 30 | 100 | 15 | 100 | kinase still bound, per cent of control (DMPK (human)): 100%; kinase still bound, per cent of control (EGFR (human)): 100%; kinase still bound, per cent of control (HIPK2 (human)): 100%; kinase still bound, per cent of control (BRSK1 (human)): 100%; kinase still bound, per cent of control (TESK1 (human)): 100%; kinase still bound, per cent of control (STK38 (human)): 100%; kinase still bound, per cent of control [2]: 100%; kinase still bound, per cent of control (RIOK3 (human)): 100%; kinase still bound, per cent of control (HIPK4 (human)): 100%; kinase still bound, per cent of control (ERN1 (human)): 100%; kinase still bound, per cent of control (MELK (human)): 100%; kinase still bound, per cent of control (EPHB2 (human)): 100%; kinase still bound, per cent of control (TXK (human)): 100%; kinase still bound, per cent of control (DDR1 (human)): 100%; kinase still bound, per cent of control [3]: 100%; kinase still bound, per cent of control (NUAK1 (human)): 7.6%; kinase still bound, per cent of control (STK24 (human)): 100%
CNC(=O)c1cc(Oc2ccc(NC(=O)Nc3ccc(Cl)c(C(F)(F)F)c3)cc2)ccn1 | 100 | 0.3 | 80 | 67 | 100 | 85 | 89 | 92 | 0 | 80 | 100 | 100 | 100 | 100 | 85 | 0.2 | 94 | 16 | 72 | 28 | kinase still bound, per cent of control (DMPK (human)): 100%; kinase still bound, per cent of control (IRAK4 (human)): 95%; kinase still bound, per cent of control (MAP2K7 (human)): 88%; kinase still bound, per cent of control (BRSK1 (human)): 92%; kinase still bound, per cent of control (TESK1 (human)): 62%; kinase still bound, per cent of control (STK38 (human)): 85%; kinase still bound, per cent of control (RIOK3 (human)): 100%; kinase still bound, per cent of control (SNRK (human)): 100%; kinase still bound, per cent of control (ERN1 (human)): 74%; kinase still bound, per cent of control (MELK (human)): 100%; kinase still bound, per cent of control (EPHB2 (human)): 17%; kinase still bound, per cent of control (TXK (human)): 77%; kinase still bound, per cent of control (DDR1 (human)): 0%; kinase still bound, per cent of control (NUAK1 (human)): 84%; kinase still bound, per cent of control (STK24 (human)): 97%
